ChEMBL document CHEMBL5625227, “Discovery and optimization of 2,3-diaryl-1,3-thiazolidin-4-one-based derivatives as potent and selective cytotoxic agents with anti-inflammatory activity” (Eur J Med Chem, 2023)
Active and inactive are the calls of the source. The rule behind the calls is not given here.

Legend:
[1] = tested on: MCF7; assay: Cytotoxicity against human MCF7 cells assessed as inhibition in cell growth incubated for 72 hrs by MTT assay; type: functional, cell-based; conditions: MCF7, 72 h
[2] = tested on: HT-29; assay: Cytotoxicity against human HT-29 cells assessed as inhibition in cell growth incubated for 72 hrs by MTT assay; type: functional, cell-based; conditions: HT-29, 72 h
[3] = tested on: A2780; assay: Cytotoxicity against human A2780 cells assessed as inhibition in cell growth incubated for 72 hrs by MTT assay; type: functional, cell-based; conditions: A2780, 72 h
[4] = Cytotoxicity against human MRC5 cells assessed as inhibition in cell growth incubated for 72 hrs by MTT assay; type: toxicity, cell-based
[5] = Selectivity index, ratio of IC50 for cytotoxicity against human MRC5 cells to IC50 for cytotoxicity against human MCF7 cells; conditions: MRC5 cells versus MCF7 cells
[6] = Selectivity index, ratio of IC50 for cytotoxicity against human MRC5 cells to IC50 for cytotoxicity against human HT-29 cells; conditions: MRC5 cells versus HT-29 cells
[7] = Selectivity index, ratio of IC50 for cytotoxicity against human MRC5 cells to IC50 for cytotoxicity against human A2780 cells; conditions: MRC5 cells versus A2780 cells
[8] = tested on: HT-29; assay: Anticlonogenic activity against human HT-29 cells assessed as reduction in number of colonies at 0.025 uM incubated for 24 hrs by clonogenic survival assay; type: functional, cell-based
[9] = tested on: Ehrlich; assay: Antitumor activity against mouse Ehrlich solid carcinoma cells bearing adult male swiss albino mouse assessed as decrease in tumor volume at 50 mg/kg, po administered every other day and observed at 9 days; type: functional, organism-based; conditions: time 9.0 day
[10] = tested on: Ehrlich; assay: Antitumor activity against mouse Ehrlich solid carcinoma cells bearing adult male swiss albino mouse assessed as decrease in tumor volume at 50 mg/kg, po administered every other day and observed at 13 days; type: functional, organism-based; conditions: time 13.0 day
[11] = tested on: Ehrlich; assay: Antitumor activity against mouse Ehrlich solid carcinoma cells bearing adult male swiss albino mouse assessed as decrease in tumor volume at 50 mg/kg, po administered every other day and observed at 5 days; type: functional, organism-based; conditions: time 5.0 day
[12] = tested on: Ehrlich; assay: Antitumor activity against mouse Ehrlich solid carcinoma cells bearing adult male swiss albino mouse assessed as tumor growth inhibition at 50 mg/kg, po administered every other day and observed at 13 days relative to control; type: functional; conditions: 312 h, time 13 day, read-out: TGI
[13] = tested on: Ehrlich; assay: Antitumor activity against mouse Ehrlich solid carcinoma cells bearing adult male swiss albino mouse assessed as decrease in tumor weight at 50 mg/kg, po administered every other day and observed at 14 days; type: functional, organism-based; conditions: time 14.0 day
[14] = tested on: HT-29; assay: Anti-migration activity in human HT-29 cells assessed as suppression in cell migration at 0.025 uM incubated 48 hrs by wound-healing assay; type: functional, cell-based
[15] = tested on: HT-29; assay: Induction of apoptosis in human HT-29 cells assessed as accumulation of cells at viable stage at 0.025 uM incubated for 24 hrs by Annexin V-FITC/propidium iodide staining based flow cytometry analysis (reference value: 91.7%); type: functional
[16] = tested on: HT-29; assay: Induction of apoptosis in human HT-29 cells assessed as accumulation of cells at early apoptotic stage at 0.025 uM incubated for 24 hrs by Annexin V-FITC/propidium iodide staining based flow cytometry analysis (reference value: 0.1%); type: functional
[17] = tested on: HT-29; assay: Induction of apoptosis in human HT-29 cells assessed as accumulation of cells at late apoptotic stage at 0.025 uM incubated for 24 hrs by Annexin V-FITC/propidium iodide staining based flow cytometry analysis (reference value: 0.2%); type: functional
[18] = tested on: HT-29; assay: Induction of apoptosis in human HT-29 cells assessed as accumulation of cells at necrotic stage at 0.025 uM incubated for 24 hrs by Annexin V-FITC/propidium iodide staining based flow cytometry analysis (reference value: 8.1%); type: functional
[19] = species: Sus scrofa; assay: Inhibition of porcine brain tubulin polymerization at 1 uM by fluorescence-based tubulin polymerization assay
[20] = target: T1, Prostaglandin G/H synthase 1 (Ovis aries, UniProt P05979); assay: Inhibition of ovine COX-1
T1 sequence (P05979 whole entry): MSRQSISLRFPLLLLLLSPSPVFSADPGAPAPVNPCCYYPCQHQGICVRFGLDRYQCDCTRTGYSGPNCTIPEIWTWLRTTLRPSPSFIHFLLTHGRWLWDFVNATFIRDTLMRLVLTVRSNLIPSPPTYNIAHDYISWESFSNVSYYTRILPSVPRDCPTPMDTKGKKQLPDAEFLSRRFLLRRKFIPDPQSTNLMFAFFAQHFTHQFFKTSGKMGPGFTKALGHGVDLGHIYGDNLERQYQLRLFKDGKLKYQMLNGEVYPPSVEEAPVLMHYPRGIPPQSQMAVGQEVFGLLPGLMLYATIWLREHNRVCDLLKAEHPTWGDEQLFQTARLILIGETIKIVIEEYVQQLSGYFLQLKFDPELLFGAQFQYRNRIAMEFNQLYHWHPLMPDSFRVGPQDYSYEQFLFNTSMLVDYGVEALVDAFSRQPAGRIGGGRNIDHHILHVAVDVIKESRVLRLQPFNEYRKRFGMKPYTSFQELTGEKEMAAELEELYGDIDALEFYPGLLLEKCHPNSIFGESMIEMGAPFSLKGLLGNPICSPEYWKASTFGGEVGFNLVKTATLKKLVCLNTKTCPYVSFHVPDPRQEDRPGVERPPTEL

[21] = tested on: Rattus norvegicus; assay: Antiinflammatory activity against carrageenan-induced paw edema Sprague-Dawley rat model assessed as inhibition of paw edema by measuring edema thickness at 50 mg/kg, po measured after 1 hr (reference value: 0.71 +/- 0.03 mm); type: functional
[22] = tested on: Rattus norvegicus; assay: Antiinflammatory activity against carrageenan-induced paw edema Sprague-Dawley rat model assessed as inhibition of paw edema by measuring edema thickness at 50 mg/kg, po measured after 3 hrs (reference value: 1.41 +/- 0.13 mm); type: functional
[23] = tested on: Rattus norvegicus; assay: Antiinflammatory activity against carrageenan-induced paw edema Sprague-Dawley rat model assessed as inhibition of paw edema by measuring edema thickness at 50 mg/kg, po measured after 5 hrs (reference value: 1.39 +/- 0.11 mm); type: functional
[24] = tested on: Rattus norvegicus; assay: Antiinflammatory activity against carrageenan-induced paw edema Sprague-Dawley rat model assessed as inhibition of inflammation at 50 mg/kg, po after 1 hr relative to control; type: functional; design: scale not given: the % may be the effect or the level left
[25] = tested on: Rattus norvegicus; assay: Antiinflammatory activity against carrageenan-induced paw edema Sprague-Dawley rat model assessed as inhibition of inflammation at 50 mg/kg, po after 3 hrs relative to control; type: functional; design: scale not given: the % may be the effect or the level left
[26] = tested on: Rattus norvegicus; assay: Antiinflammatory activity against carrageenan-induced paw edema Sprague-Dawley rat model assessed as inhibition of inflammation at 50 mg/kg, po after 5 hrs relative to control; type: functional; design: scale not given: the % may be the effect or the level left
[27] = Acute ulcerogenic activity in Sprague-Dawley male rat assessed as incidence of ulcer/10 animal at 50 mg/kg/day, po administered for 3 days; type: toxicity, organism-based; conditions: in vivo, 72 h, time 3 day
[28] = Acute ulcerogenic activity in Sprague-Dawley male rat assessed as average number of ulcers at 50 mg/kg/day, po administered for 3 days; type: toxicity, organism-based; conditions: in vivo, 72 h, time 3 day
[29] = Acute ulcerogenic activity in Sprague-Dawley male rat assessed as average severity of ulcers at 50 mg/kg/day, po administered for 3 days; type: toxicity, organism-based; conditions: in vivo, 72 h, time 3 day
[30] = Acute ulcerogenic activity in Sprague-Dawley male rat assessed as ulcer index at 50 mg/kg/day, po administered for 3 days; type: toxicity, organism-based; conditions: in vivo, 72 h, time 3 day
[31] = Acute ulcerogenic activity in Sprague-Dawley male rat assessed as change in normal gastric mucosa with mild congestion of the blood vessels in the submucosa at 50 mg/kg/day, po administered for 3 days by hematoxylin and eosin staining method; type: toxicity, organism-based, Stomach; conditions: in vivo, 72 h, time 3 day

`Cc1ccc(C2SCC(=O)N2c2ccc(OCC(=O)Nc3ccc(Cl)cc3)cc2)cc1` (stereo unspecified) showed an IC50 [1] of 110 nM, an IC50 [2] of 20 nM and an IC50 [3] of 180 nM. For the same compound, the IC50 at 72 h [4] was 470 nM, the selectivity ratio at 72 h [5] was 4.27 and the selectivity ratio at 72 h [6] was 23.5. For the same compound, the selectivity ratio at 72 h [7] was 2.61, the Activity [8] was “Active” and the Activity [9] was “Active”. The Activity [10] was “Active”, the Activity [11] was “Active” and the inhibition in vivo at 50 mg/kg [12] was 51.6%. For the same compound, the Activity [13] was “Active”, the Activity [14] was “Active” and the Activity [15] was 41.1%. The Activity [16] was 19.2%, the Activity [17] was 15.6% and the Activity [18] was 24.1%. The inhibition [19] was “Active”, the IC50 [20] was 13400 nM and the Activity [21] was 0.52 mm. It also gave an Activity [22] of 0.49 mm, an Activity [23] of 0.73 mm and an Activity [24] of 15.3%. For the same compound, the Activity [25] was 32.7%, the Activity [26] was 47.48% and the Activity [27] was 10%. The Activity [28] was 3.33, the Activity [29] was 2 and the UI [30] was 15.33. The Activity [31] was “Non-Toxic”.
